Assay results from patent EP2065039A1, “Selective inhibition of Polo-like kinase 1” (Max-Planck-Gesellschaft zur Förderung der Wissenschaften …, priority 2007, dated 2009).
Read-outs that look alike come from different tables or passages of the source.

How the values were obtained:
Plk2 PBD = molecular target: T1, Plk2 PBD (Homo sapiens, UniProt Q9NYY3); assay: Fluorescence polarization specificity assay, Plk2 PBD; assay type: binding; details: Plk2 PBD 130 nM; incubation with inhibitor 1 hr at 22 °C prior to addition of fluorophore-labeled peptide; read-out: apparent IC50
T1 construct: human Plk2 amino acids 355-685; made in house; host or cells: E. coli Rosetta BL21 DE3
T1 sequence (Q9NYY3 355-685): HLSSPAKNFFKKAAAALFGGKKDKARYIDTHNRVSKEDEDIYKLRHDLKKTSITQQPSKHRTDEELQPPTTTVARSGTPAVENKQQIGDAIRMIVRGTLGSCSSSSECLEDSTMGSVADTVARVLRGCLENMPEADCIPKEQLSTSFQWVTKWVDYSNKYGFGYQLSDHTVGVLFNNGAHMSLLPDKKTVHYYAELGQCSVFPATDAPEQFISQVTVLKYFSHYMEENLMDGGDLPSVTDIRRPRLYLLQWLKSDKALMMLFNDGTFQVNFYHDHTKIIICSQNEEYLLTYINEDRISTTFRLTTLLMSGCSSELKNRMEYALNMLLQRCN
From the text: (§1) DNA sequences coding for human Plk1 amino acids 326-603, human Plk2 amino acids 355-685, and human Plk3 amino acids 335-646 comprising the respective polo-box domains were amplified by PCR from plasmid DNA (Plk1) or placenta cDNA (Plk2, Plk3) and cloned into a modified pET28a (Plk1) or a modified pQE70 vector (Plk2 and Plk3). Similarly, nucleotides coding for the […] (FHA) of the kinase Chk2 (amino acids 1-225) and the WW domain of the proline isomerase Pin1 (amino acids 1-162) were amplified by PCR from HeLa S3 and placenta cDNA, respectively, and cloned into a modified pET28a vector. The design of expression plasmids coding for STAT1, STAT3, STATSb, and Lck has been described before and belongs to the knowledge of a skilled person. […] Wild-type and mutant PBD sequences were cloned into a modified pCS2 mammalian expression vector carrying a myc-tag. […]
(§2) Diverse Chemical libraries consisting of 22461 small molecules were tested in a fluorescence polarization assay which analyzes binding between 5-carboxyfluorescein-GPMQST(P03H2)PLNG-OH (final concentration: 10 nM) and the Plk1 polo-box domain (final concentration: 65 nM). […]

Chk2 FHA domain = molecular target: T2, Chk2 FHA domain (Homo sapiens, UniProt O96017); assay: Fluorescence polarization specificity assay, Chk2 FHA domain; assay type: binding; details: Chk2 240 nM; incubation with inhibitor 1 hr at 22 °C prior to addition of fluorophore-labeled peptide; read-out: apparent IC50
T2 construct: kinase Chk2 (amino acids 1-225); made in house; host or cells: E. coli Rosetta BL21 DE3
T2 sequence (O96017 1-225): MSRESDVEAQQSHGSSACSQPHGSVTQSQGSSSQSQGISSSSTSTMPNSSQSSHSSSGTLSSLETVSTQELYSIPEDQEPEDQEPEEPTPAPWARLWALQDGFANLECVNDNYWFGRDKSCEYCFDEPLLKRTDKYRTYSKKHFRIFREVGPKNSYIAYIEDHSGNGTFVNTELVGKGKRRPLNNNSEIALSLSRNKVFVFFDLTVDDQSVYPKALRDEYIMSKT
From the text: as §1, §2

Pin1 WW domain = molecular target: T3, Pin1 WW domain (Homo sapiens, UniProt Q13526); assay: Fluorescence polarization specificity assay, Pin1 WW domain; assay type: binding; details: Pin1 1000 nM; incubation with inhibitor 1 hr at 22 °C prior to addition of fluorophore-labeled peptide; read-out: apparent IC50
T3 construct: proline isomerase Pin1 (amino acids 1-162); made in house; host or cells: E. coli Rosetta BL21 DE3
T3 sequence (Q13526 1-162): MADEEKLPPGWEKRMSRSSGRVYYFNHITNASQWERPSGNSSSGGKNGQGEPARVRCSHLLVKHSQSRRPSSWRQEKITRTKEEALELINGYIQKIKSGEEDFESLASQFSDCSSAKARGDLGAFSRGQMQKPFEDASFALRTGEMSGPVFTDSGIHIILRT
From the text: as §1, §2

STAT1 SH2 domain = STAT1 SH2 domain (Homo sapiens, UniProt P42224); assay: Fluorescence polarization specificity assay, STAT1 SH2 domain; assay type: binding
Chain of STAT1 SH2 domain (P42224 132-713): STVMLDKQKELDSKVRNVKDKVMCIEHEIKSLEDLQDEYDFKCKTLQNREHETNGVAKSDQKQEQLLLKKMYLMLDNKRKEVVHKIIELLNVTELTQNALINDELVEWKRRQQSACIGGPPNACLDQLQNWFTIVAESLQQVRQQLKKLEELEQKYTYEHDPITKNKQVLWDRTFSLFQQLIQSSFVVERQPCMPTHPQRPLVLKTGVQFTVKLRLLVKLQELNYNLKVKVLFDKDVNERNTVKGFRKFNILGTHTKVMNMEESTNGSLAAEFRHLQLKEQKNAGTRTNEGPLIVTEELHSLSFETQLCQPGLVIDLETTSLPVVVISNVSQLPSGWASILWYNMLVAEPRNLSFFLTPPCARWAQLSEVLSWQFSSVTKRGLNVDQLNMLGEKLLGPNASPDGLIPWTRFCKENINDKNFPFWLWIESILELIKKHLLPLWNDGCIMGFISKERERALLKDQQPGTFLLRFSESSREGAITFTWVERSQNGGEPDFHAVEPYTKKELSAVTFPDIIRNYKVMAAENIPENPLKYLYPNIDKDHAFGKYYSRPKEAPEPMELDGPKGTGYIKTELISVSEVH
From the text: as §1, §2

STAT3 SH2 domain = molecular target: T4, STAT3 SH2 domain (Homo sapiens, UniProt P40763); assay: Fluorescence polarization specificity assay, STAT3 SH2 domain; assay type: binding; details: STAT3 160 nM; incubation with inhibitor 1 hr at 22 °C prior to addition of fluorophore-labeled peptide; read-out: apparent IC50
T4 construct: made in house
T4 sequence (P40763 127-722 limits assumed): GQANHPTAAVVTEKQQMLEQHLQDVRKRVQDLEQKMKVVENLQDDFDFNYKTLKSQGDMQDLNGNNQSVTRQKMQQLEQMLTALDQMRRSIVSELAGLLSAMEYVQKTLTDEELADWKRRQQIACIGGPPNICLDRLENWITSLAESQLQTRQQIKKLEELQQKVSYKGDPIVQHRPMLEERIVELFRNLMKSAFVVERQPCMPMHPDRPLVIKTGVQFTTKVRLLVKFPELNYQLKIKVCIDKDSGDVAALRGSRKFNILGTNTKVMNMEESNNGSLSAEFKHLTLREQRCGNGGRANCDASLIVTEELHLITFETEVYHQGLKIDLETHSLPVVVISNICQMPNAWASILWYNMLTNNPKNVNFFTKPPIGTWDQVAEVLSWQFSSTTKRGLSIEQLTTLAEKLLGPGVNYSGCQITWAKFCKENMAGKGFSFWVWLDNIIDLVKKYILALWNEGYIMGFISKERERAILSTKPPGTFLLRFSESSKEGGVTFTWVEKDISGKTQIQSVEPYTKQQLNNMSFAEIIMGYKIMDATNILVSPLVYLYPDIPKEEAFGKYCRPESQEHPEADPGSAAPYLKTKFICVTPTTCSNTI
From the text: as §1, §2

STAT5 SH2 domain = molecular target: T5, STAT5 SH2 domain (Homo sapiens, UniProt P51692); assay: Fluorescence polarization specificity assay, STAT5 SH2 domain; assay type: binding; details: STAT5b 110 nM, incubation with inhibitor 1 hr at 22 °C prior to addition of fluorophore-labeled peptide, read-out: apparent IC50
T5 construct: made in house
T5 sequence (P51692 136-703 limits assumed): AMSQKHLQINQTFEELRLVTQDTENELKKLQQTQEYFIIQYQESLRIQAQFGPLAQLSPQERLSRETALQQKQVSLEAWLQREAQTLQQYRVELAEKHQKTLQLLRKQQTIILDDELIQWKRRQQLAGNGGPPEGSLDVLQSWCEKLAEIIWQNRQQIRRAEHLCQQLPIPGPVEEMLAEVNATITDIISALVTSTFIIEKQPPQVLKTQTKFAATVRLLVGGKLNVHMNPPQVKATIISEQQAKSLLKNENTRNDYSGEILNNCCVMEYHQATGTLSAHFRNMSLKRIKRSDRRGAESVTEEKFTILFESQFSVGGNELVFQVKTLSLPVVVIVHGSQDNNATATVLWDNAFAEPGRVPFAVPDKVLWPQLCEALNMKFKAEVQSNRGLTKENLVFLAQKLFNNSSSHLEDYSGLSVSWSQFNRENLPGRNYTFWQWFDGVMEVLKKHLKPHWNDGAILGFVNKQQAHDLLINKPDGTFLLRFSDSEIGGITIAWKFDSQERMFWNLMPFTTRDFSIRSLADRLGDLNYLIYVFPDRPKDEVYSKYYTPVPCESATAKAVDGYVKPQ
From the text: as §1, §2

Lck SH2 domain = Lck SH2 domain (Homo sapiens, UniProt P06239); assay: Fluorescence polarization specificity assay, Lck SH2 domain; assay type: binding
Chain of Lck SH2 domain (P06239 127-224): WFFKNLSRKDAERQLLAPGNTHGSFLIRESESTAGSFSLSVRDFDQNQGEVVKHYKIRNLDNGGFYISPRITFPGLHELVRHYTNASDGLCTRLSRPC
From the text: as §1, §2

HeLa cells = assay: Mitotic arrest / cell cycle analysis in synchronized HeLa cells (Western blot, flow cytometry); assay type: cell-based; details: for mitotic arrest in HeLa cells: HeLa cells synchronized by thymidine block, released into medium containing compound, Figs. 5A-5C
From the text: Figure 1A/B Comparative IC50 inhibition curves with preferred compounds [1] (poloxin) and [14] (thymoquinone, TQ) versus Plk1, Plk2, Plk3, Chk2, Pin1, Stat1, Stat3, Stat5 and Lck. Figure 2 Cellular effects of poloxin and thymoquinone (TQ): Mitotic indices of HeLa cells 14 hrs after release from G1/S block. Figure 3 Distribution of mitotic phases and chromosome congression defects within the metaphase population in the presence of poloxin and thymoquinone (TQ). […]. […] Unsynchronized cells (control), cells synchronized with nocodazol (Noc) or thymidine (Thym), or cells released from thymidine block in the medium containing only DMSO (DMSO) were analyzed for comparison. Figure 5B Analysis of cell cycle distribution by fluorescence-activated flow cytometry. Cells were treated as in 5A. A representative example is shown. Figure 5C Quantification of the cell cycle analysis as shown in 5B (n=3). […]. […] Figure 6B Overexpression of PBD wild-type (wt), but not of the triple mutant PBD FAA, induces mitotic arrest in HeLa cells.
HeLa cells were maintained in Dulbecco's Modified Eagle-Medium (High Glucose) supplemented with 2 mM L-glutamine, 1 mM sodium pyruvate, 10% foetal calf serum, 100 U/mL penicillin, and 100 µg/mL streptomycin (GIBCO and PAA). For the Western blot analysis Fig. 5A, HeLa cells were arrested at the G1/S boundary by thymidine block, and released into thymidine-free medium containing the indicated concentration of compounds at a final DMSO concentration of 0.5%. After 7 hours, medium was replaced with fresh medium which also contained the indicated concentration of compound. […]
For the determination of mitotic indices shown in Fig. 6A, the number of mitotic cells within a population of 200-300 cells was counted. For the determination of the mitotic phase distribution shown in Fig. 6B, populations of approximately 50 mitotic cells were analyzed. […] The DNA content of 30000 cells was determined with a FACScan flow cytometer (BD Biosciences). The data were analyzed with cell cycle analysis Software MODFIT LT 2.0 (Verity Software House). […]

Plk3 PBD = molecular target: T6, Plk3 PBD (Homo sapiens, UniProt Q9H4B4); assay: Fluorescence polarization specificity assay, Plk3 PBD; assay type: binding; details: Plk3 PBD 1875 nM; incubation with inhibitor 1 hr at 22 °C prior to addition of fluorophore-labeled peptide; read-out: apparent IC50
T6 construct: human Plk3 amino acids 335-646; made in house; host or cells: E. coli Rosetta BL21 DE3
T6 sequence (Q9H4B4 335-646): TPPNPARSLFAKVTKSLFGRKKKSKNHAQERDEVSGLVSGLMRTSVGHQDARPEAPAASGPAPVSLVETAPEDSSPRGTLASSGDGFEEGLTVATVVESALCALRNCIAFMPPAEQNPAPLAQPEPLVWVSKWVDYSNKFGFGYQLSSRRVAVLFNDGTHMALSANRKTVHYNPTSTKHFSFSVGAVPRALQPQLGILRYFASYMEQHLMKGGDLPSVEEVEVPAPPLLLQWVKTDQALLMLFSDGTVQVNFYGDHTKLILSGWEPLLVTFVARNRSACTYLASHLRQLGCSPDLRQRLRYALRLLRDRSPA
Method: Purified proteins were aliquoted, snap-frozen in liquid nitrogen, and stored at -80°C before use. Binding curve experiments were done for each protein batch before inhibition experiments were started.
The final concentration of buffer components used was: 10 mM Tris, pH 8.0, 50 mM NaCl, 1 mM EDTA, 0.1 % Nonidet P-40, and 10% DMSO. The Plk1 PBD was incubated with compounds for 60 min prior to addition of the fluoropeptide. Screening was performed at room temperature. The following fluorophore-labeled peptides were used for specificity assays: • Plk2: 5-carboxyfluorescein-GPMQTST(PO3H2)PKNG-OH; • Plk3: 5-carboxyfluorescein-GPLATST(PO3H2)PKNG-OH; • Chk2: 5-carboxyfluorescein-GHFDT(PO3H2)YLIRR-OH; • Pin 1: 5-carboxyfluorescein-GWFYS(PO3H2)PRLKK-OH; • STAT1: 5-carboxyfluorescein-GY(PO3H2)DKPHVL-OH; • STAT3: 5-carboxyfluorescein-GY(PO3H2)LPQTV-NH2; • STAT5b: 5-carboxyfluorescein-GY(PO3H2)L VLDKW-OH;Lck:5-carboxyfluorescein-GY(P03H2)EEIP-OH.
Fluorescein-labeled peptides were >95% pure. […] Inhibition curves were fitted using SigmaPlot (SPSS Science Software GmbH).

IC50 (STAT1 SH2 domain; STAT1 120 nM, incubation with inhibitor 1 hr at 22 °C prior to addition of fluorophore-labeled peptide, read-out: apparent IC50) [µM] | IC50 (STAT5 SH2 domain; value in mM) [mM] | IC50 (Lck SH2 domain; Lck 40 nM, incubation with inhibitor 1 hr at 22 °C prior to addition of fluorophore-labeled peptide, read-out: apparent IC50) [µM] | Compound | IC50 (Plk2 PBD) [µM] | IC50 (Chk2 FHA domain) [µM] | IC50 (Pin1 WW domain) [µM] | IC50 (STAT3 SH2 domain) [µM] | mitotic arrest in HeLa cells (HeLa cells) | IC50 (Plk3 PBD) [µM] | IC50 (STAT1 SH2 domain) [µM] | IC50 (STAT5 SH2 domain) [mM] | IC50 (Lck SH2 domain) [µM] | toxic side effects in cell cycle analysis (HeLa cells; 25 µM, HeLa cells, flow cytometry, quantification of cell cycle profile unfeasible (Fig. 5C))
> 555 | > 1 | > 5000 | CC1=CC(=O)C(C(C)C)=CC1=NOC(=O)c1ccccc1C [Poloxin] | 18.7 ± 1.8 | > 330 | > 215 | > 285 | induce mitotic arrest | – | – | – | – | –
– | – | – | CC1=CC(=O)C(C(C)C)=CC1=O [Thymoquinone, thymoquinone] | 1.9 ± 0.1 | 3.9 ± 0.6 | 20.4 ± 0.9 | 10.9 ± 0.2 | induce mitotic arrest | 22.4 ± 0.8 | > 5000 | > 0.24 | > 5000 | toxic side effects
